Measurements: US20070122859A1, “Immunoassay for LSD and 2-oxo-3-hydroxy-LSD” (priority 2000, published 2007)
Where two headings read alike, the source gives them in different places.

What was measured:
Clone 2.1 = test: ELISA antibody cross-reactivity, Clone 2.1; assay type: binding, mouse
Experimental: (§1) Cross-reactivity of three clones for LSD, nor-LSD and 2-oxo-3-hydroxy-LSD was determined using an ELISA technique. Microtiter plates were coated with 100 μl of 0.325 mg/ml LSD-BSA or 100 μl of 0.325 mg/ml 2-oxo-3-hydroxy-LSD-BSA for 1 hour at 37° C. and post-blocked with 200 μl of 1% BSA in PBS for 1 hour at room temperature. Plates were washed 3 times with 400 μl of PBS-0.1% TWEEN-20. Free LSD, nor-LSD and 2-oxo-3-hydroxy-LSD were diluted to 1000 ng/ml in PBS. Antibody was diluted 8,000 fold. Drug solutions, 200 μl of 1000 ng/ml, solutions were dispensed into the first column of an ELISA plate. The rest of the wells were filled with 100 μl of PBS. Serial dilutions of the drugs were prepared by taking 100 μl of the drug solution out of the first column and dispensing it into the second column of the plate. Contents of the wells were mixed thoroughly by pipetting the solution up and down 5 times. 100 μl out of the second column was dispensed into the third column and mixed as above. The process was repeated for all 12 columns of ELISA plates. 100 μl of solution out of the last wells was discarded. 100 μl of antibody diluted 8,000 fold was added to each well. Resulting concentrations of the drug were 500 ng/ml, 250 ng/ml, 125 ng/ml, 62.5 ng/ml, 31.2 ng/ml, 15.6 ng/ml, 7.81 ng/ml, 3.90 ng/ml, 1.95 ng/ml, 0.976 ng/ml, 0.488 ng/ml, 0.244 ng/ml. Final antibody dilution was 16,000 fold. Plates were incubated for 1 hour at 37° C. and washed 3 times with PBS-TWEEN-20. Rabbit anti-mouse HRP conjugated IgG was diluted 5,000 fold and 100 μl were added to ELISA plates. The plates were incubated for 1 hour at 37° C. and washed 3 times with PBS-TWEEN-20. 100 μl of K-BLUE substrate was dispensed into each well. Plates were incubated for 30 min at room temperature in the dark. The reaction was stopped with 100 μl of 2 M H3PO4, and absorbance was read at 450 nm.

Clone 1.1 = test: ELISA antibody cross-reactivity, Clone 1.1; assay type: binding, mouse
Experimental: as §1

Clone 20.2 = test: ELISA antibody cross-reactivity, Clone 20.2; assay type: binding, mouse
Experimental: as §1

[1] = test system: antibodies specific for LSD; conditions: EMIT (Syva Company) immunoassay; cited from earlier work
[2] = test system: antibodies specific for LSD; conditions: KIMS (Roche Diagnostics) immunoassay; cited from earlier work
[3] = cited from earlier work
[4] = test system: antibodies specific for LSD; conditions: CEDIA (Microgenics Corporation) immunoassay; cited from earlier work
[5] = Dilution 0.2 (free drug 0.244 ng/ml)
[6] = Dilution 0.5 (free drug 0.488 ng/ml)
[7] = Dilution 1.0 (free drug 0.976 ng/ml)
[8] = Dilution 2.0 (free drug 1.95 ng/ml)
[9] = Dilution 3.9 (free drug 3.90 ng/ml)
[10] = Dilution 7.8 (free drug 7.81 ng/ml)
[11] = Dilution 15.6 (free drug 15.6 ng/ml)
[12] = Dilution 31.3 (free drug 31.2 ng/ml)
[13] = Dilution 62.5 (free drug 62.5 ng/ml)
[14] = Dilution 125.0 (free drug 125 ng/ml)
[15] = Dilution 250.0 (free drug 250 ng/ml)
[16] = Dilution 500.0 (free drug 500 ng/ml)
[17] = based upon specificity to 2-oxo-3-hydroxy-LSD

With `CCN(CC)C(=O)[C@@H]1C=C2c3cccc4[nH]cc(c34)C[C@H]2NC1` [nor-LSD, N-desmethyl-LSD] the A450 (Clone 2.1; [5]) was 0.900, the A450 (Clone 2.1; [6]) was 0.859 and the A450 (Clone 2.1; [7]) was 0.842. The A450 (Clone 2.1; [8]) was 0.792, the A450 (Clone 2.1; [9]) was 0.786 and the A450 (Clone 2.1; [10]) was 0.696. It also gave an A450 (Clone 2.1; [11]) of 0.648, an A450 (Clone 2.1; [12]) of 0.504 and an A450 (Clone 2.1; [13]) of 0.444. For the same compound, the A450 (Clone 2.1; [14]) was 0.384, the A450 (Clone 2.1; [15]) was 0.318 and the A450 (Clone 2.1; [16]) was 0.276. It also gave a Calculated percentage cross-reactivity (Clone 2.1; [17]) of 1.8%, a Calculated percentage cross-reactivity (Clone 2.1; based upon specificity to LSD) of 2.3% and an A450 (Clone 1.1; [5]) of 4.019. The A450 (Clone 1.1; [6]) was 4.074, the A450 (Clone 1.1; [7]) was 4.100 and the A450 (Clone 1.1; [8]) was 3.884. For the same compound, the A450 (Clone 1.1; [9]) was 4.035, the A450 (Clone 1.1; [10]) was 3.805 and the A450 (Clone 1.1; [11]) was 3.740. The A450 (Clone 1.1; [12]) was 3.735, the A450 (Clone 1.1; [13]) was 3.601 and the A450 (Clone 1.1; [14]) was 3.512. It also gave an A450 (Clone 1.1; [15]) of 3.340, an A450 (Clone 1.1; [16]) of 2.968 and a Calculated percentage cross-reactivity (Clone 1.1; [17]) of 1.9%. It also gave a Calculated percentage cross-reactivity (Clone 1.1; based upon specificity to LSD) of 2.6%, an A450 (Clone 20.2; [5]) of 0.908 and an A450 (Clone 20.2; [6]) of 0.866. The A450 (Clone 20.2; [7]) was 0.853, the A450 (Clone 20.2; [8]) was 0.799 and the A450 (Clone 20.2; [9]) was 0.722. It also gave an A450 (Clone 20.2; [10]) of 0.656, an A450 (Clone 20.2; [11]) of 0.584 and an A450 (Clone 20.2; [12]) of 0.464. For the same compound, the A450 (Clone 20.2; [13]) was 0.416, the A450 (Clone 20.2; [14]) was 0.292 and the A450 (Clone 20.2; [15]) was 0.228. For the same compound, the A450 (Clone 20.2; [16]) was 0.288, the Calculated percentage cross-reactivity (Clone 20.2; [17]) was 4.6% and the Calculated percentage cross-reactivity (Clone 20.2; based upon specificity to LSD) was 5.5%.

`CCN(CC)C(=O)[C@@H]1C=C2c3cccc4c3C(O)(C[C@H]2N(C)C1)C(=O)N4` (stereo partly drawn) [2-oxo-3-hydroxy-LSD, 2-oxo-3-hydroxy-d-lysergic acid diethylamide] showed an A450 (Clone 2.1; [5]) of 0.846, an A450 (Clone 2.1; [6]) of 0.690 and an A450 (Clone 2.1; [7]) of 0.552. The A450 (Clone 2.1; [8]) was 0.531, the A450 (Clone 2.1; [9]) was 0.372 and the A450 (Clone 2.1; [10]) was 0.321. For the same compound, the A450 (Clone 2.1; [11]) was 0.294, the A450 (Clone 2.1; [12]) was 0.309 and the A450 (Clone 2.1; [13]) was 0.243. The A450 (Clone 2.1; [14]) was 0.256, the A450 (Clone 2.1; [15]) was 0.297 and the A450 (Clone 2.1; [16]) was 0.243. For the same compound, the Calculated percentage cross-reactivity (Clone 2.1; [17]) was 100.0%, the Calculated percentage cross-reactivity (Clone 2.1; based upon specificity to LSD) was 131.4% and the cross-reactivity [1] was 1.7%. The cross-reactivity [2] was 11%, the “time detectable after ingestion of the drug” value ([3]; urine, compared with LSD) was “can be detected for a longer time than LSD” and the A450 (Clone 1.1; [5]) was 3.913. It also gave an A450 (Clone 1.1; [6]) of 3.928, an A450 (Clone 1.1; [7]) of 4.033 and an A450 (Clone 1.1; [8]) of 4.015. It also gave an A450 (Clone 1.1; [9]) of 3.908, an A450 (Clone 1.1; [10]) of 3.914 and an A450 (Clone 1.1; [11]) of 3.310. It also gave an A450 (Clone 1.1; [12]) of 3.108, an A450 (Clone 1.1; [13]) of 2.278 and an A450 (Clone 1.1; [14]) of 1.768. For the same compound, the A450 (Clone 1.1; [15]) was 1.425, the A450 (Clone 1.1; [16]) was 0.871 and the Calculated percentage cross-reactivity (Clone 1.1; [17]) was 100.0%. It also gave a Calculated percentage cross-reactivity (Clone 1.1; based upon specificity to LSD) of 133.6%, an A450 (Clone 20.2; [5]) of 0.838 and an A450 (Clone 20.2; [6]) of 0.704. It also gave an A450 (Clone 20.2; [7]) of 0.430, an A450 (Clone 20.2; [8]) of 0.372 and an A450 (Clone 20.2; [9]) of 0.316. The A450 (Clone 20.2; [10]) was 0.272, the A450 (Clone 20.2; [11]) was 0.220 and the A450 (Clone 20.2; [12]) was 0.148. For the same compound, the A450 (Clone 20.2; [13]) was 0.142, the A450 (Clone 20.2; [14]) was 0.143 and the A450 (Clone 20.2; [15]) was 0.144. The A450 (Clone 20.2; [16]) was 0.142, the Calculated percentage cross-reactivity (Clone 20.2; [17]) was 100.0% and the Calculated percentage cross-reactivity (Clone 20.2; based upon specificity to LSD) was 118.5%. The cross-reactivity [4] was 1.8%.

`CCN(CC)C(=O)[C@@H]1C=C2c3cccc4[nH]cc(c34)C[C@H]2N(C)C1` [LSD, 9,10-didehydro-N,N-diethyl-6-methylergoline-8β-carboxamide] showed an A450 (Clone 2.1; [5]) of 0.831, an A450 (Clone 2.1; [6]) of 0.738 and an A450 (Clone 2.1; [7]) of 0.579. The A450 (Clone 2.1; [8]) was 0.523, the A450 (Clone 2.1; [9]) was 0.435 and the A450 (Clone 2.1; [10]) was 0.339. The A450 (Clone 2.1; [11]) was 0.303, the A450 (Clone 2.1; [12]) was 0.294 and the A450 (Clone 2.1; [13]) was 0.252. The A450 (Clone 2.1; [14]) was 0.240, the A450 (Clone 2.1; [15]) was 0.234 and the A450 (Clone 2.1; [16]) was 0.236. The Calculated percentage cross-reactivity (Clone 2.1; [17]) was 76.1%, the Calculated percentage cross-reactivity (Clone 2.1; based upon specificity to LSD) was 100.0% and the “parent drug excreted in human urine” value ([3]; human urine) was “about 1%”. It also gave an A450 (Clone 1.1; [5]) of 3.797, an A450 (Clone 1.1; [6]) of 4.085 and an A450 (Clone 1.1; [7]) of 3.962. For the same compound, the A450 (Clone 1.1; [8]) was 3.905, the A450 (Clone 1.1; [9]) was 3.951 and the A450 (Clone 1.1; [10]) was 3.831. For the same compound, the A450 (Clone 1.1; [11]) was 3.519, the A450 (Clone 1.1; [12]) was 3.390 and the A450 (Clone 1.1; [13]) was 2.633. For the same compound, the A450 (Clone 1.1; [14]) was 2.050, the A450 (Clone 1.1; [15]) was 1.433 and the A450 (Clone 1.1; [16]) was 0.831. For the same compound, the Calculated percentage cross-reactivity (Clone 1.1; [17]) was 74.9%, the Calculated percentage cross-reactivity (Clone 1.1; based upon specificity to LSD) was 100.0% and the A450 (Clone 20.2; [5]) was 0.833. For the same compound, the A450 (Clone 20.2; [6]) was 0.658, the A450 (Clone 20.2; [7]) was 0.587 and the A450 (Clone 20.2; [8]) was 0.328. For the same compound, the A450 (Clone 20.2; [9]) was 0.284, the A450 (Clone 20.2; [10]) was 0.204 and the A450 (Clone 20.2; [11]) was 0.160. For the same compound, the A450 (Clone 20.2; [12]) was 0.126, the A450 (Clone 20.2; [13]) was 0.126 and the A450 (Clone 20.2; [14]) was 0.124. For the same compound, the A450 (Clone 20.2; [15]) was 0.188, the A450 (Clone 20.2; [16]) was 0.122 and the Calculated percentage cross-reactivity (Clone 20.2; [17]) was 84.4%. The Calculated percentage cross-reactivity (Clone 20.2; based upon specificity to LSD) was 100.0%.
